Experimental data as given in US20260240792A1, “COMPOSITIONS FOR TREATING 5-HT2 CONDITIONS AND METHODS OF USING THE SAME” (Board of Supervisors of Louisiana State University and …, priority 2022, published 2026).
Where “and” joins values, the source holds several entries; their conditions need not be identical. Equal values may be shown once. Entries after “also recorded” stand apart in the source; their conditions may differ.

How the values were obtained:
[1] = system: rabbits; assay: Topical ocular dosing in rabbits: observation of CNS, systemic, ocular and behavioral effects, ocular tolerability; format: in vivo, rabbit; conditions: for adverse events on repeated dosing / threshold dose for inducing systemic effects and minimal undesirable events: 50 μl per eye; for adverse events on repeated dosing: 2 times on day 1 then 4 times per day for 3 days
Protocol: Apparent Ocular Irritability • b. Induction of Inflammation • c. Reduction of Corneal Barrier Integrity • d. Dry Eye or Excessive Tearing • e. Induction of Neovascularization • f. Induction of Scleral Reddening
Parameters Assessed during 2 hour Observation Window (see, for example, FIG. 1):
Two studies were performed to determine at what dose between 0.01% and 0.1% were behavioral and/or systemic effects observed. 50 μL doses at 0.01%, 0.05%, and 0.075% per eye applied and assessments were made as indicated herein.
The application of most topical eye drops requires repeatedly dosing up to 9 times per day in order to maintain efficacy across the course of waking hours and have efficacious levels available during sleeping hours. The effects of repeated ocular dosing of R-DOI were assessed in a similar manner as described herein, with the exception that doses of 0.01% or 0.05% were applied repeatedly as outlined herein:
Animals from the acute dosing were continued through the repeated dosing study. Animals were dosed at the indicated concentration 2 times on day 1 and then dosed 4 times per day for 3 subsequent days. Doses were administered at 50 μl per eye into both eyes of the animal.
Rabbits were assessed for clinically clear eyes by slit lamp ophthalmic scoring. All eyes of all rabbits were normal.
Following balancing animals were treated with 50 μL of Control ophthalmic BSS/0.5% CMC or 0.01% Compound 1 in ophthalmic BSS/0.5% CMC.
Any behavioral changes were continuously monitored over the next 2.5 hours (FIG. 3).
We can determine if a single dose of the ocular composition of 0.01% R-DOI with 0.5% carboxymethylcellulose in ophthalmic BSS: • 1. Reproduced previous findings that R-DOI had IOP depressing effects. • 2. Produced any readily observable behavioral effects. • 3. Was tolerated by the eye without adverse ocular effects, including absence of: • a. Apparent Ocular Irritability • b. Induction of Inflammation • c. Dry Eye or Excessive Tearing • d. Induction of Scleral Reddening • 4. Reduced IOP • 5. Maintained Reduction in IOP • 6. Increased Tear Film Production
(§1) • Rabbits were assessed for clinically clear eyes by slit lamp ophthalmic scoring. All eyes of all rabbits were normal. • Each eye of each rabbit was then assessed for initial IOP by tonometer. • Each eye of each rabbit was assessed for tear film production by Schirmer's Tear Flo Strips at a 30 second interval of analysis. Tear measures were evaluated by a digital caliper to determine mm of tears collected. • Rabbits were sorted into two groups attempting to balance IOP numbers (one higher, one lower animal per group). • Following animals were treated with 50 μL of Control ophthalmic BSS/0.5% CMC or 0.01% R-DOI HCl in ophthalmic BSS/0.5% CMC. • Any apparent behavioral changes were continuously monitored over the next 2.5 hours. • IOP determinations were made at 30 minutes, 1 hour, 2 hours and 3 hours, 5 hours, 7 hours and 24 hours-eyes were examined closely for any adverse effects during these IOP measures. • 7 hours post treatment when IOP returned to control levels tear film production was assessed (see, for example, FIG. 9).

[2] = system: rabbits; assay: Intraocular pressure (IOP) after topical ocular dosing in rabbits; format: in vivo, rabbit; conditions: for Ave OS 2 hpt IOP: left eye; for Ave OS 2 hpt IOP / Avg OD 2 hpt IOP: 2 hours after dosing
Protocol: The IOP was assessed as a component of clinical outcomes for the animals in the studies described herein. The table below represents the effect of R-DOI on IOP 2 hours after dosing with the indicated concentration of R-DOI. Eyes were individually assessed and are indicated as IOP for the right (OD) or left (OS) eye.
Each eye of each rabbit was then assessed for initial IOP by tonometer.
IOP determinations were made at 30 minutes, 1 hour, 1.5 hours and 2.5 hours-eyes were examined closely for any adverse effects during these IOP measures.
3 days post treatment at the same time initial measures were made, IOP and tear film production were re-assessed to examine if effects were sustained post 1 treatment.
The IOP was assessed via a TonoVet rebound Tonometer. The tables herein (see, for example, FIG. 4) represent the effect of Compound 1 on IOP at time intervals within the first 2.5 hours after dosing with 0.01% Compound 1 in BSS with 0.5% CMC. Eyes were individually assessed and are indicated as IOP for the right (OD) or left (OS) eye. 3 days post treatment eyes were reassessed for IOP changes to see if the effects of treatment lasted over a prolonged period.
as §1
The IOP was assessed via a TonoVet rebound Tonometer. The tables herein (see, for example, FIGS. 10-11) represents the effect of R-DOI on IOP at the defined time intervals Eyes were individually assessed and are indicated as IOP for the right (OD) or left (OS) eye.

[3] = Weight changes across 1 week of dosing; format: in vivo, rabbit
[4] = Solubility in ophthalmic eye drop (BSS, 0.5% CMC); format: physicochemical; conditions: 0.1% (5 mg/5 mL) in BSS with 0.5% CMC, pH 7.0
Protocol: Non-Limiting, Exemplary Findings Discussed within: • The NCE Compound 1 was formulated within an ophthalmic eye drop with BSS and 0.5% carboxymethylcellulose (CMC) at percentages of 0.1% (5 mg/5 ml) and lower with a pH of 7.0.
• The R-DOI HCl was formulated within an ophthalmic eye drop with BSS and 0.5% carboxymethylcellulose (CMC) at percentages of 0.1% (5 mg/5 mL) and lower with a pH of 7.0.

[5] = 0.075%, 50 μL per eye, both eyes, single dose
[6] = 0.075%, 50 μL per eye, both eyes, single dose, listed as R-DOI HCl
[7] = 0.1%, 50 μL per eye, both eyes, single dose
[8] = 0.1%, 50 μL per eye, both eyes, single dose, 2 hour observation
[9] = 0.1%, 50 μL per eye, both eyes, single dose, 2 hour observation, listed as R-DOI HCl
[10] = 0.01% single dose, group E5/E6, 2 h
[11] = 0.1% single dose, group E3/E4, 2 h
[12] = 0.01% (1 dose/day day 1, 2 dose/day day 2, 4 dose/day days 3-5)
[13] = 0.1% day 1, then 0.05% (2 dose/day day 2, 4 dose/day days 3-5)

SMILES: COc1cc(C[C@@H](C)N)c(OC)cc1I [R-DOI, (R)-1-(2,5-dimethoxy-4-iodophenyl)-2-aminopropane]
- ocular tolerability of ophthalmic drops (irritability, dry eye or tearing, corneal damage, inflammation, neovascularization) ([1]; 0.01% or 0.05%, repeated dosing, listed as R-DOI HCl): tolerated with no signs or symptoms of irritability; also recorded: Neither signs of dry eye nor excessive tear production was observed; also recorded: no damage to corneal surfaces, barrier intactness, inflammation, or neovascularization
- adverse events (ocular, systemic, behavioral or otherwise) ([1]; 0.01%, 50 μL per eye, both eyes, single dose): No observable changes; also recorded: no apparent adverse events
- adverse events (ocular, systemic, behavioral or otherwise) ([1]; 0.01%, 50 μL per eye, both eyes, single dose, listed as R-DOI HCl): no adverse or abnormal events observed
- adverse events on repeated dosing ([1]; 0.01%, both eyes): did not cause any adverse events; also recorded: No observable changes
- adverse events on repeated dosing ([1]; 0.01%, both eyes, listed as R-DOI HCl): no adverse or abnormal events observed
- acute ocular toxicity, irritability or adverse ocular reactions ([1]; 0.01%, acute single dosing): did not exhibit any acute ocular toxicity, irritability, or adverse ocular reactions
- adverse events (ocular, systemic, behavioral or otherwise) ([1]; 0.05%, 50 μL per eye, both eyes, single dose): No adverse events; also recorded: No observable changes
- adverse events (ocular, systemic, behavioral or otherwise) ([1]; 0.05%, 50 μL per eye, both eyes, single dose, listed as R-DOI HCl): no adverse or abnormal events observed
- adverse events on repeated dosing ([1]; 0.05%, both eyes): did not cause any adverse events; also recorded: No observable changes
- adverse events on repeated dosing ([1]; 0.05%, both eyes, listed as R-DOI HCl): no adverse or abnormal events observed
- adverse events (ocular, systemic, behavioral or otherwise) [1, 5]: No adverse events; also recorded: No CNS, Ocular Behavioral or Systemic Changes
- pupil dilation/contraction (miosis) [1, 5]: Slight Miosis can be observed in E10 and E11
- adverse events (ocular, systemic, behavioral or otherwise) [1, 6]: no adverse CNS or systemic events observed
- pupil dilation/contraction (miosis) [1, 6]: Slight but transient miosis was evident in 2 animals
- time for miosis to resolve to normal after initial observation ([1]; 0.075%, single dose, 2 animals): ≤ 15 min
- onset of symptoms [1, 7]: 20 min
- time post treatment at which observed effects were cleared [1, 7]: cleared by one hour post administration and 1 hour to 2 hour post: Regained Responsiveness; Breathing Normal; Pupils Normal
- CNS associated behavioral effects [1, 8]: only slight CNS associated behavioral effects were noted; also recorded: Lethargy; also recorded: Head twitch?
- pupil dilation/contraction (miosis) [1, 8]: miosis or contraction of the pupil; also recorded: Miosis obvious (pupil contracted)
- systemic effects (respiration and heart rate) [1, 8]: increased respiration and heart rate were noted; also recorded: Increased breathing and Heartrate
- CNS associated behavioral effects [1, 9]: minimal to no head bobs/twitches observed
- systemic effects (respiration and heart rate) [1, 9]: obvious increased respiration and heart rates
- time post treatment at which observed effects were cleared ([1]; 0.1%, 50 μL per eye, both eyes, single dose, listed as R-DOI HCl): approximately 1 hour
- threshold dose for inducing systemic effects and minimal undesirable events ([1]; both eyes): greater than 0.075%
- threshold dose for inducing systemic effects and minimal undesirable events ([1]; both eyes, listed as R-DOI HCl): 0.1%
- systemic and behavioral threshold concentration for delivery ([1]; delivered as a 50 μL drop of 0.1% ophthalmic solution to both eyes): ≥ 100 total micrograms per animal
- acute ocular toxicity, irritability or adverse ocular reactions ([1]; topical eye drop, acute single dosing and repeated dosing trials): did not exhibit any acute ocular toxicity, irritability or adverse ocular reactions
- time post administration by which a significant decrease in IOP was shown ([2]; 0.01% single dose): ≤ 30 min
- whether the decrease in intraocular pressure was sustained ([2]; 0.01% single dose, IOP followed to 24 hours): not sustained following 3 hours post treatment
- Avg % change Group [2, 10]: −53.33%
- Avg Delta Eye Group [2, 10]: −7.75
- Ave OS 2 hpt IOP ([2]; 0.01% single dose): 13.50 and 7.00
- Avg OD 2 hpt IOP ([2]; 0.01% single dose, right eye): 12.25 and 7.00
- % Change (OD) ([2]; 0.01% single dose, right eye, 2 h vs starting IOP): −56.67% and −50.00%
- Avg % change Group [2, 11]: −30.77%
- Avg Delta Eye Group [2, 11]: −4.94
- Ave OS 2 hpt IOP ([2]; 0.1% single dose): 13.25 and 9.00
- Avg OD 2 hpt IOP ([2]; 0.1% single dose, right eye): 11.50 and 13.25
- effect on intraocular pressure ([2]; single topical ocular dose): decreased IOP with the greatest reduction of IOP observed for the lower R-DOI dosages; also recorded: acutely decreased intraocular pressure with a single dose
- 1 week weight [3, 12]: 3.17 kg and 2.89 kg
- 1 week weight change [3, 12]: 0.11 and 0.07
- weight with repeated dosing ([3]; 0.01% or 0.05% repeated dosing, 1 week): no loss of weight with repeated dosing
- 1 week weight [3, 13]: 2.96 kg and 2.79 kg
- 1 week weight change [3, 13]: 0.08 and 0.09
- Solubility of the compound [4]: good with no remaining precipitates
